Results: patent US8921358B2, “Apoptosis signal-regulating kinase 1 inhibitors” (Takeda Pharmaceutical Company Limited, priority 2008, dated 2014)
Structures can show the parent of a compound that is named as a salt.

Biological target: T1, human ASK1 (Homo sapiens, UniProt Q99683)
T1 construct: a 2.2 kb DNA fragment containing an ASK1 gene was recovered from the gel; made in house; host or cells: Sf-21 insect cells, recombinant baculovirus (pFASTBAC1, Bac-to-Bac)
T1 sequence (Q99683 649-1374 limits assumed): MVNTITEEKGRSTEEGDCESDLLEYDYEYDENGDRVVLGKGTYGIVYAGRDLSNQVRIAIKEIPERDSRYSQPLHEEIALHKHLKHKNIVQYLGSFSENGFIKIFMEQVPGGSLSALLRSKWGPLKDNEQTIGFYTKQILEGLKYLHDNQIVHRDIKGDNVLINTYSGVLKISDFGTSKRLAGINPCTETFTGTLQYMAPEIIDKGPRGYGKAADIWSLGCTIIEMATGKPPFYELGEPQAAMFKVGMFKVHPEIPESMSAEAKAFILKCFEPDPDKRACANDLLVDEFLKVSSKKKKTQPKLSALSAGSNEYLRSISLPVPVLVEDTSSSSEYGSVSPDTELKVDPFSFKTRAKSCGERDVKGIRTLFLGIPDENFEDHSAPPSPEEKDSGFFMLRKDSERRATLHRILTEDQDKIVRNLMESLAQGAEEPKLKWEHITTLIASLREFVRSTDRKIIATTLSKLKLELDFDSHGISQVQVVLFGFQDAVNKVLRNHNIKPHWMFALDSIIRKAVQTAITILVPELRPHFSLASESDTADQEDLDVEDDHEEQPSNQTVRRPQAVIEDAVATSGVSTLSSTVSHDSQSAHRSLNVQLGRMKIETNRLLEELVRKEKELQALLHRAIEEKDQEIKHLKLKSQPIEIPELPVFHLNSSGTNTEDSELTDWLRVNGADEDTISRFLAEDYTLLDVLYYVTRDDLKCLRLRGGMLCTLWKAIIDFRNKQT
Test: Scintillation assay measuring inhibition of ASK1 phosphorylation of myelin basic protein
Format: biochemical
Conditions: active ASK1 protein 30 ng, myelin basic protein 1 μg, [γ-32P]ATP, room temperature 30 min; values given as ranges; read-out: Enzyme Activity IC50
Experimental: Cloning of cDNA encoding human ASK1 was conducted by PCR using primers, 5′-[…] AGAGAAGGGGA-3′ (SEQ ID NO: 1) and 5′-[…]-3′ (SEQ ID NO: 2), from human heart cDNA library (Becton, Dickinson and Company). The PCR product was subjected to agarose gel (1%) electrophoresis, a 2.2 kb DNA fragment containing an ASK1 gene was recovered from the gel, and then digested with restriction enzymes, NotI and SalI, and inserted into a plasmid pFASTBAC1 (Invitrogen) to prepare a plasmid pFB-ASK1. The insert was verified by sequencing. Recombinant baculovirus was prepared according to the procedure of the Bac-to-Bac baculovirus expression system (Invitrogen).
Sf-21 cells were seeded to achieve 1×10^6 cells/mL in 100 mL of Sf-900 II SFM medium (Invitrogen) which contains 10% fetal calf serum and then cultured at 27° C. for 24 hrs. To express ASK1 in cells, 0.15 mL of the recombinant baculovirus virus stock was added to cells, and the then cultured for 60 hrs. The cells were separated from the culture solution by centrifugation at 3000 rpm for 10 min and washed once with PBS. The cells were suspended in 10 mL of lysis buffer (25 mM HEPES (pH 7.5), 1% Triton X, 130 mM NaCl, 1 mM EDTA, 1 mM DTT, 25 mM β-glycerophosphate, Protease inhibitor complete (Roche), 1 mM sodium orthovanadate) and ruptured by four times of treatment with a homogenizer (POLYTRON) at 20000 rpm for 30 seconds. Active ASK1 protein was purified from a supernatant obtained by centrifugal separation at 40000 rpm for 45 min using anti-FLAG M2 Affinity Gel (Sigma).
The test compounds (2.5 μl) dissolved in DMSO were added to wells containing 37.5 μl of the reaction solution (25 mM HEPES (pH 7.5), 10 mM magnesium acetate, 1 mM DTT) including 30 ng of active ASK1 protein and 1 μg of myelin basic protein (Wako), and incubated at room temperature for 5 min. To start the reaction, 10 μL of ATP solution (2.5 μM ATP, 0.1 μCi [γ-^32P]ATP) was added to wells. After incubating at room temperature for 30 min, the reaction was terminated by adding 50 μl of 20% TCA solution. The reaction solution was incubated at 4° C. for 30 min and an acid-insoluble fraction was transferred onto a GF/C filter (Packard) with Cell Harvester (Packard), and washed with 250 mM phosphoric acid. After drying at 45° C. for 60 min., 40 μL of Microscint 0 (Packard) was added and the radioactivity was measured with TopCount (Packard). The concentrations (IC50 value) of the test compounds necessary for 50% inhibition of kinase activity were calculated by PRISM 3.0 (Graphpad Software).
The enzyme activities of selected compounds of the present invention against ASK1 were determined using the assay disclosed in Example A and B. The resulted pIC50 values are reported in Table 1.

IC50 [nM] | Compound
< 100 | Cc1cc2nc(NC(=O)[C@@H]3C[C@H]3c3ccccc3)cc(-c3ccccc3)n2n1 [Compound 347, (1R,2R)—N-(2-Methyl-7-phenylpyrazolo[1,5-a]pyrimidin-5-yl)-2-phenylcyclopropanecarboxamide]
< 100 | CC(C)(O)c1ccc(C(=O)Nc2cc(N3CCC[C@@H](C(N)=O)C3)n3nccc3n2)cc1 [Compound 83, (R)-1-(5-(4-(2-hydroxypropan-2-yl)benzamido)pyrazolo[1,5-a]pyrimidin-7-yl)piperidine-3-carboxamide]
100 to 1000 | Cc1cc2nc(NC(=O)c3ccc(C(C)(C)O)nc3)cc(-c3ccccc3)n2n1 [Compound 315, 6-(2-hydroxypropan-2-yl)-N-(2-methyl-7-phenylpyrazolo[1,5-a]pyrimidin-5-yl)nicotinamide]
< 100 | COc1ccc(-c2cc(NC(=O)c3ccc(C(C)(C)O)nc3)nc3cc(C)nn23)cc1 [Compound 338, 6-(2-hydroxypropan-2-yl)-N-(7-(4-methoxyphenyl)-2-methylpyrazolo[1,5-a]pyrimidin-5-yl)nicotinamide, trifluoroacetate salt]
100 to 1000 | CC(C)(O)c1ccc(C(=O)Nc2cc(N3CCC[C@H](O)C3)n3nccc3n2)cc1 [Compound 78, (S)—N-(7-(3-hydroxypiperidin-1-yl)pyrazolo[1,5-a]pyrimidin-5-yl)-4-(2-hydroxypropan-2-yl)benzamide]
> 1000 | Cc1cc2nc(N)cc(-c3cccc(CO)c3)n2n1 [Compound 173, (3-(5-amino-2-methylpyrazolo[1,5-a]pyrimidin-7-yl)phenyl)methanol]
< 100 | CC(=O)NC1CCN(c2cc(NC(=O)[C@@H]3C[C@H]3c3ccccc3)nc3cc(C)nn23)CC1 [Compound 356, (1R,2R)—N-(7-(4-acetamidopiperidin-1-yl)-2-methylpyrazolo[1,5-a]pyrimidin-5-yl)-2-phenylcyclopropanecarboxamide]
100 to 1000 | CC(C)(O)c1ccc(C(=O)Nc2cc(N3CC[C@@H](O)C3)n3nccc3n2)cc1 [Compound 69, (R)-4-(2-hydroxypropan-2-yl)-N-(7-(3-hydroxypyrrolidin-1-yl)pyrazolo[1,5-a]pyrimidin-5-yl)benzamide]
100 to 1000 | CC(C)(O)c1ccc(C(=O)Nc2cc(N3CCC[C@@H](O)C3)n3nccc3n2)cc1 [Compound 76, (R)—N-(7-(3-hydroxypiperidin-1-yl)pyrazolo[1,5-a]pyrimidin-5-yl)-4-(2-hydroxypropan-2-yl)benzamide]
< 100 | CC(C)(O)c1ccc(C(=O)Nc2cc(N3CCc4nc[nH]c(=O)c4C3)n3nccc3n2)cc1 [Compound 89, 4-(2-hydroxypropan-2-yl)-N-(7-(4-oxo-3,4,7,8-tetrahydropyrido[4,3-d]pyrimidin-6(5H)-yl)pyrazolo[1,5-a]pyrimidin-5-yl)benzamide]
> 1000 | CC(C)(O)c1ccc(C(=O)Nc2cc(N3CCC[C@H]3C(N)=O)n3nccc3n2)cc1 [Compound 92, (S)-1-(5-(4-(2-hydroxypropan-2-yl)benzamido)pyrazolo[1,5-a]pyrimidin-7-yl)pyrrolidine-2-carboxamide]
100 to 1000 | CC(C)(O)c1ccc(C(=O)Nc2cc(N3CCC[C@H]3CO)n3nccc3n2)cc1 [Compound 67, (S)—N-(7-(2-(hydroxymethyl)pyrrolidin-1-yl)pyrazolo[1,5-a]pyrimidin-5-yl)-4-(2-hydroxypropan-2-yl)benzamide]
< 100 | CC(C)(O)c1ccc(C(=O)Nc2cc(N3CCCC3)n3nccc3n2)cc1 [Compound 87, 4-(2-hydroxypropan-2-yl)-N-(7-(pyrrolidin-1-yl)pyrazolo[1,5-a]pyrimidin-5-yl)benzamide]
100 to 1000 | CC(C)(O)c1ccc(C(=O)Nc2cc(N3CCNC(=O)CC3)n3nccc3n2)cc1 [Compound 93, 4-(2-hydroxypropan-2-yl)-N-(7-(5-oxo-1,4-diazepan-1-yl)pyrazolo[1,5-a]pyrimidin-5-yl)benzamide]

The remaining lines, values behind:

Compound | IC50 [nM]
CC(O)(c1ccc(C(=O)Nc2cc(-c3cccc(CO)c3)n3nccc3n2)cc1)C(F)(F)F (stereo not drawn) [Compound 7, N-(7-(3-(hydroxymethyl)phenyl)pyrazolo[1,5-a]pyrimidin-5-yl)-4-(1,1,1-trifluoro-2-hydroxypropan-2-yl)benzamide] | < 100
CC(C)(O)c1ccc(C(=O)Nc2cc(-c3ccccc3)n3nccc3n2)cc1 [Compound 16, 4-(2-Hydroxypropan-2-yl)-N-(7-phenylpyrazolo[1,5-a]pyrimidin-5-yl)benzamide] | < 100
COc1ccc(-c2cc(NC(=O)c3ccc(C(C)(C)C)cc3)nc3ccnn23)cn1 [Compound 13, 4-tert-Butyl-N-(7-(6-methoxypyridin-3-yl)pyrazolo[1,5-a]pyrimidin-5-yl)benzamide] | > 1000
CC(C)(C)c1ccc(C(=O)Nc2cc(N3CCc4ccccc4C3)n3nccc3n2)cc1 [Compound 66, 4-tert-butyl-N-(7-(3,4-dihydroisoquinolin-2(1H)-yl)pyrazolo[1,5-a]pyrimidin-5-yl)benzamide] | < 100
CC(C)(O)c1ccc(C(=O)Nc2cc(-c3ccc(C(N)=O)cc3)n3nccc3n2)cc1 [Compound 22, N-(7-(4-carbamoylphenyl)pyrazolo[1,5-a]pyrimidin-5-yl)-4-(2-hydroxypropan-2-yl)benzamide] | 100 to 1000
CC(C)(C)c1ccc(C(=O)Nc2cc(-c3cccc(CCCO)c3)n3nccc3n2)cc1 [Compound 11, 4-tert-Butyl-N-(7-(3-(3-hydroxypropyl)phenyl)pyrazolo[1,5-a]pyrimidin-5-yl)benzamide] | < 100
COc1ccc(-c2cc(NC(=O)c3ccc(C(C)(C)O)cc3)nc3ccnn23)cc1 [Compound 19, 4-(2-Hydroxypropan-2-yl)-N-(7-(4-methoxyphenyl)pyrazolo[1,5-a]pyrimidin-5-yl)benzamide] | < 100
CC(C)(O)c1ccc(C(=O)Nc2cc(-c3ccc(C(F)(F)F)cc3)n3nccc3n2)cc1 [Compound 24, 4-(2-hydroxypropan-2-yl)-N-(7-(4-(trifluoromethyl)phenyl)pyrazolo[1,5-a]pyrimidin-5-yl)benzamide] | 100 to 1000
CC(C)(C)c1ccc(C(=O)Nc2cc(-c3cccc(CO)c3)n3nccc3n2)cc1 [Compound 5, 4-tert-butyl-N-(7-(3-(hydroxymethyl)phenyl)pyrazolo[1,5-a]pyrimidin-5-yl)benzamide] | < 100
Cc1cc2nc(NC(=O)c3ccc(C(C)(C)CO)cc3)cc(-c3ccccc3)n2n1 [Compound 29, 4-(1-hydroxy-2-methylpropan-2-yl)-N-(2-methyl-7-phenylpyrazolo[1,5-a]pyrimidin-5-yl)benzamide] | < 100
